{"source": "patent US20110213025A1", "about": "“Catheter Lock Solutions Utilizing Tocopherol and Mid-Chain Fatty Acids” (ProviFlo, LLC, priority 2009, published 2011)", "assay": "saturation point of dodecanoic acid in the liquid lock components at room temperature", "format": "physicochemical", "conditions": "without heating, soluble in octanoic acid, decanoic and tocopherol, weight/volume", "source_text": "In a fifth aspect of the present invention, a hydrophobic antimicrobial catheter lock solution includes alpha-tocopherol, in a concentration of 0% to 50% by volume/volume and mid-chain fatty acids. The fatty acids may include any combination of octanoic acid (0% to 25% volume/volume), decanoic acid (0% to 12.5% volume/volume), and/or dodecanoic acid (0% to 12.5% weight/volume). The combined formula after dissolving and mixing the chosen mid-chain fatty acid(s) is adjusted to a final volume with the alpha-tocopherol so that the solution has a viscosity greater than about 3 mPa·s. The lock has a viscosity in the range of about 3-5 mPa·s. Dodecanoic acid is a solid soluble in octanoic acid, decanoic and tocopherol. Concentrations of dodecanoic acid of less than about 25% dissolve readily without heating (i.e. 25% is approximately the saturation point of dodecanoic acid at room temperature). Optimal concentrations are most easily achieved by dissolution of dodecanoic acid in octanoic acid prior to adding the tocopherol. Of course, it is also possible to mix any or all of the liquid ingredients (i.e. octanoic acid and/or decanoic acid and/or tocopherol) together first and secondarily dissolve the dodecanoic acid. Alternatively, dodecanoic acid could be mixed with any of the liquids and the remaining liquid components added depending on the concentration of dodecanoic acid. […]"}
{"smiles": "CCCCCCCCCCCC(=O)O", "note": "[dodecanoic acid]", "values": [{"measurement": "saturation point of dodecanoic acid", "result": "about 25%"}]}
